Data: patent US20070196406A1, “1,3-Dimethylbutyl carboxanilides for controlling undesirable micro-organisms” (priority 2003, published 2007)

Legend:
[1] = logP determination by HPLC on a reversed-phase column (EEC Directive 79/831 Annex V.A8); format: physicochemical; conditions: reversed-phase C18 HPLC column, pH 2.3, C 18 reversed phase, 43° C.
Description: The logP values given in the Preparation Examples and tables above are determined in accordance with EEC Directive 79/831 Annex V.A8 by HPLC (High Performance Liquid Chromatography) on a reversed-phase column (C 18). Temperature: 43° C.
The determination is carried out in the acidic range at pH 2.3 using the mobile phases 0.1% aqueous phosphoric acid and acetonitrile; linear gradient from 10% acetonitrile to 90% acetonitrile.
Calibration is carried out using unbranched alkan-2-ones (with 3 to 16 carbon atoms) with known logP values (determination of the logP values by the retention times using linear interpolation between two successive alkanones).

Puccinia recondita = assay: Puccinia test (wheat)/protective; format: in vivo; conditions: 240 h, wheat plants, protective spray, evaluation 10 days after inoculation, read-out: Efficacy in %
Description: Puccinia Test (Wheat)/Protective
Solvent: 50 parts by weight of N,N-dimethylacetamide
Emulsifier: 1 part by weight of alkylaryl polyglycol ether
To produce a suitable preparation of active compound, 1 part by weight of active compound is mixed with the stated amounts of solvent and emulsifier, and the concentrate is diluted with water to the desired concentration.
To test for protective activity, young plants are sprayed with the preparation of active compound at the stated application rate. After the spray coating has dried on, the plants are sprayed with a conidia suspension of Puccinia recondita. The plants remain in an incubation cabinet at 20° C. and 100% relative atmospheric humidity for 48 hours.
The plants are then placed in a greenhouse at a temperature of about 20° C. and a relative atmospheric humidity of 80% to promote the development of rust pustules.
(§1) Evaluation is carried out 10 days after the inoculation. 0% means an efficacy which corresponds to that of the control, whereas an efficacy of 100% means that no infection is observed.

Podosphaera leucotricha = assay: Podosphaera test (apple)/protective; format: in vivo; conditions: 240 h, apple plants, protective spray, evaluation 10 days after inoculation, read-out: Efficacy in %
Description: Podosphaera Test (Apple)/Protective
• Solvents: 24.5 parts by weight of acetone • 24.5 parts by weight of dimethylacetamide • Emulsifier: 1 part by weight of alklylaryl polyglycol ether
To produce a suitable preparation of active compound, 1 part by weight of active compound is mixed with the stated amounts of solvents and emulsifier, and the concentrate is diluted with water to the desired concentration.
To test for protective activity, young plants are sprayed with the preparation of active compound at the stated application rate. After the spray coating has dried on, the plants are inoculated with an aqueous spore suspension of the apple mildew pathogen Podosphaera leucotricha. The plants are then placed in a greenhouse at about 23° C. and a relative atmospheric humidity of about 70%.
as §1

SMILES | chromatographic logP [1] | pest or weed control at 500 g/ha (Puccinia recondita) [%] | other results
COC(=O)c1cn(C)nc1C(Cl)Cl [XII-1] | 1.8 | – | –
Cc1sccc1C(=O)Nc1ccccc1C(C)CC(C)C (centres unmarked) [drawing 118] | – | 100 | –
Cc1nc(C(F)(F)F)c(C(=O)Nc2ccc(F)cc2C(C)CC(C)C)s1 (centres unmarked) [drawing 127] | – | 100 | –
Cc1ccsc1C(=O)Nc1ccc(F)cc1C(C)CC(C)C (centres unmarked) [drawing 128] | – | 100 | –
Cn1cc(C(=O)O)c(C=O)n1 [XI-1] | -0.19 | – | –
Cc1sccc1C(=O)Nc1ccc(F)cc1C(C)CC(C)C (centres unmarked) [drawing 125] | – | 100 | –
CC1=C(C(=O)Nc2ccc(F)cc2C(C)CC(C)C)SCCO1 (centres unmarked) [drawing 93] | – | – | pest or weed control at 100 g/ha (Podosphaera leucotricha): 100%
Cc1sccc1C(=O)Nc1ccc(F)cc1C(C)CC(C)C (centres unmarked) [drawing 89] | – | – | pest or weed control at 100 g/ha (Podosphaera leucotricha): 100%
Cc1nc(C(F)F)c(C(=O)Nc2ccc(F)cc2C(C)CC(C)C)s1 (centres unmarked) [drawing 129] | – | 100 | –
CC(C)CC(C)c1ccccc1NC(=O)c1ccoc1C(F)(F)F (centres unmarked) [drawing 119] | – | 100 | –
CC(C)CC(C)c1ccccc1NC(=O)c1ccoc1C(F)(F)F (centres unmarked) [drawing 84] | – | – | pest or weed control at 100 g/ha (Podosphaera leucotricha): 98%
Cc1occc1C(=O)Nc1ccc(F)cc1C(C)CC(C)C (centres unmarked) | – | 100 | –
CCOC(=O)c1sc(C)nc1OC [II-1] | 1.9 | – | –
Cc1nc(C(F)(F)F)c(C(=O)Nc2ccc(F)cc2C(C)CC(C)C)s1 (centres unmarked) [drawing 90] | – | – | pest or weed control at 100 g/ha (Podosphaera leucotricha): 100%
CC(C)CC(C)c1cc(F)ccc1NC(=O)c1cccnc1Cl (centres unmarked) | – | 100 | –
Cc1sccc1C(=O)Nc1ccccc1C(C)CC(C)C (centres unmarked) [drawing 83] | – | – | pest or weed control at 100 g/ha (Podosphaera leucotricha): 100%
CCOC(=O)c1sc(C)nc1OC(F)F [II-6] | 2.54 | – | –
Cc1nc(O)c(C(=O)Nc2ccccc2C(C)CC(C)C)s1 (centres unmarked) [Example 4, N-[2-(1,3-dimethylbutyl)phenyl]-4-hydroxy-2-methyl-1,3-thiazole-5-carboxamide] | 2.68 | – | –

SMILES | chromatographic logP [1] | pest or weed control at 500 g/ha (Puccinia recondita) [%] | other results
CC(C)CC(C)c1ccccc1NC(=O)c1scnc1Cl (centres unmarked) [drawing 82] | – | – | pest or weed control at 100 g/ha (Podosphaera leucotricha): 100%
Cc1nc(Cl)sc1C(=O)Nc1ccccc1C(C)CC(C)C (centres unmarked) | – | 100 | –
CC(C)CC(C)c1cc(F)ccc1NC(=O)c1cn(C)nc1Cl (centres unmarked) | – | 100 | –
Cc1ccsc1C(=O)Nc1ccc(F)cc1C(C)CC(C)C (centres unmarked) [drawing 91] | – | – | pest or weed control at 100 g/ha (Podosphaera leucotricha): 99%
Cc1nc(OC(F)F)c(C(=O)O)s1 [II-7] | 1.29 | – | –
CC(C)CC(C)c1ccccc1NC(=O)c1cn(C)nc1Cl (centres unmarked) [drawing 120] | – | 100 | –
COc1nc(C)sc1C(=O)Nc1ccccc1C(C)CC(C)C (centres unmarked) [Example 3, N-[2-(1,3-dimethylbutyl)phenyl]-4-methoxy-2-methyl-1,3-thiazole-5-carboxamide] | 4.45 | – | –
CC(C)CC(C)c1cc(F)ccc1NC(=O)c1cn(C)nc1C(F)F (centres unmarked) [drawing 124] | – | 100 | –
CC(C)CC(C)c1ccccc1NC(=O)c1cn(C)nc1Cl (centres unmarked) [drawing 85] | – | – | pest or weed control at 100 g/ha (Podosphaera leucotricha): 100%
COC(=O)c1cn(C)nc1C=O [Example X-1] | 0.46 | – | –
Cc1nc(C(F)F)c(C(=O)Nc2ccc(F)cc2C(C)CC(C)C)s1 (centres unmarked) [drawing 92] | – | – | pest or weed control at 100 g/ha (Podosphaera leucotricha): 100%
CC(C)CC(C)c1ccccc1NC(=O)c1cn(C)nc1C=O (centres unmarked) [Example 2, N-[2-(1,3-dimethylbutyl)phenyl]-3-formyl-1-methyl-1H-pyrazole-4-carboxamide] | 3.64 | – | –
CCOC(=O)c1cn(C)nc1OC [II-4] | 1.14 | – | –
COc1nc(C)sc1C(=O)O [II-2] | 0.77 | – | –
CC(C)CC(C)c1ccccc1NC(=O)c1cn(C)nc1C(Cl)Cl (centres unmarked) [Example 1, 3-(dichloromethyl)-1-methyl-N-[2-(1,3-dimethylbutyl)phenyl]-1H-pyrazole-4-carboxamide] | 3.74 | – | –
CC(C)CC(C)c1cc(F)ccc1NC(=O)c1cn(C)nc1C(F)(F)F (centres unmarked) [drawing 121] | – | 100 | –
CC1=C(C(=O)Nc2ccc(F)cc2C(C)CC(C)C)SCCO1 (centres unmarked) [drawing 130] | – | 100 | –
